The target of one assay is T1, endotheline receptor (Rattus norvegicus, UniProt P21451).
T1 construct: prepared from rat's posteror cortex plus cerebellum; from tissue; host or cells: rat posterior cortex plus cerebellum membranes
T1 sequence (P21451 27-442): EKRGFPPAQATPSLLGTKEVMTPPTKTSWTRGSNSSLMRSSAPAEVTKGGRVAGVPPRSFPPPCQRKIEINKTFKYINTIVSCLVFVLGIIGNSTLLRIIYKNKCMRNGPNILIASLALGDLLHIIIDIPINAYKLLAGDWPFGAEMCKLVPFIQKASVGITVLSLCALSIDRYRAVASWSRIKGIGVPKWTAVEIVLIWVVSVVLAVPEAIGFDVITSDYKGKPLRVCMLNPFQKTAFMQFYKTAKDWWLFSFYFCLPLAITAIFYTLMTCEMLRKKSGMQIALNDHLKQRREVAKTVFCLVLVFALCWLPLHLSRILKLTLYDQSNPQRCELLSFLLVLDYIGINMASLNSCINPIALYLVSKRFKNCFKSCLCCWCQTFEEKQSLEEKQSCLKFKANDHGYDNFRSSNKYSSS
Briefly: activity on the endotheline receptor (rat posterior cortex plus cerebellum membranes, 125I Endotheline). In kind it is binding. Particulars: pH 7.4, 25° C., 60 minutes, read-out: IC50 (displacement by 50% of the specific radioactivity fixed to the receptor). Here is the method: 3) Study of the activity on the endotheline receptor
A membrane preparaton was prepared from rat's posteror cortex plus cerebellum. The tissue was ground up in a POLYTRON in a Tris buffer 50 mM pH=7.4. After 30 minutes at 25° C. (W.B.), the homogenate was centrifuged at 30,000 g for 15 minutes (2 centrifugings with intermediate taking up in the Tris buffer pH 7.4). The deposits were suspended in an incubation buffer (Tris 25 mM, pepsteatine 5 microg/ml, aprotinine 3 microg/ml. PMSF 0.1 mM, EDTA 3 mM, EGTA 1 mM pH 7.4). 2 ml aliquots were distributed in hemolysis tubes and 125I Endotheline (about 50,000 dpm/tube) and the product to be studied were added. The product was first tested at 3×10^-5 M in triplicate. When the tested product displaced by more than 50% the radioactivity linked specifically to the receptor, it was tested again in a range of 7 concentrations to determine the concentration that inhibited the radioactivity linked specifically to the receptor by 50%. In this way, the 50% inhibiting concentration was determined.
The non-specific bond was determined by the addition of endotheline at 10^-6 M (in triplicate). The aliquot was incubated at 25° C. for 60 minutes, put in a water bath at 0° C. for 5 minutes, filtered under reduced pressure, rinsed with Tris buffer 7.4 pH and the radioactivity was counted in the presence of scintillating Triton. […]

The test system of assay [1] is vasoconstrictive effect of endotheline. Nature of the assay: antagonistic activity of the vasoconstrictive effect of endotheline in a demedullated rat. In kind it is in vivo. As to conditions: 1 mg/kg (IV), 10 minutes before endotheline 1-3-10-30 μg/kg IV; anaesthetized demedullated Sprague Dawley rats. The protocol:
4) Investigation of an antagonistic activity of the vasoconstrictive effect of endotheline in a demedullated rat
The vasoconstriction caused by injections (IV) of cumulative doses of endotheline (1-3-10-30 μg/kg) was measured by the increase of average arterial pressure in a control group of rats (Sprague Dawley), anaesthetized, then demedullated.

The test system of assay [2] is angiotensin II on the isolated portal vein. Nature of the assay: antagonistic activity of angiotensin II on the isolated portal vein. Also noted: species or system male Wistar rats. Particulars: rat isolated portal vein; angiotensin II 3.10^-8 M; compound 15 minutes before stimulation; 37° C.; verapamil 1.10^-6 M; read-out: IC50 (concentration that produced a 50% inhibition of the response to angiotensin). The protocol:
The portal vein was removed from male Wistar rats weighing about 350 g (IFFA Credo France) after cervical dislocation. It was put rapidly into a physiological solution (see below) at ambient temperature and a ring of about 1 mm was mounted in a bath with an isolated element containing 20 ml of the following physiological solution (composition in mM: NaCl 118.3-KCl 4.7-MgSO4 1.2-KH2 PO4 1.2-NaHCO3 25-glucose 11.1-CaCl2 2.5). The medium was held at 37° C. and oxygenated by a mixture of O2 95%, CO2 5%. The initial pressure imposed was 1 g and the rings were left at rest for 60 to 90 minutes. To avoid spontaneous contractions, verapamil was added to the incubation bath (1.10^-6 M).
At the end of rest period, angiotensin II (Ciba hypertensin) 3.10^-8 M was added to the incubation bath and left in contact with the preparation for one minute. This operation was repeated every 30 minutes with the tissue being washed 3 or 4 times between two stimulations with angiotensin. The compound to be studied was introduced into the bath 15 minutes before a new stimulation with angiotensin. As increasing concentrations of this molecule were used, an IC50 (concentration that produced a 50% inhibition of the response to angiotensin) was calculated, expressed in nanomoles.

In the next assay the target is T2, angiotensin II receptor (Rattus norvegicus, UniProt P25095).
T2 construct: A fresh membrane preparation obtained from the liver of a rat was used; from tissue; host or cells: rat liver membranes
T2 sequence (P25095 1-359): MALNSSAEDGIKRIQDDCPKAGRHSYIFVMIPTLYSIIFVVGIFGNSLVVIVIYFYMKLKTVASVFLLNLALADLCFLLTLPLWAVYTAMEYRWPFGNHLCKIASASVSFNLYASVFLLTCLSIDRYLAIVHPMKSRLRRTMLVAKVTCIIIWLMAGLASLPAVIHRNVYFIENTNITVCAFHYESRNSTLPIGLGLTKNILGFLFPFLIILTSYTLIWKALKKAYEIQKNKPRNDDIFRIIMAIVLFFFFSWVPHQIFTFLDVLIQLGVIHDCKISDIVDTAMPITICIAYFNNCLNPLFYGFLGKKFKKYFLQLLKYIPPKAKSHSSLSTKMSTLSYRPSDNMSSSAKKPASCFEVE
Briefly: Test on the angiotensin II receptor (rat liver membranes, 125I angiotensin II). In kind it is binding. Particulars: pH 7.4, 25° C., 150 minutes, read-out: IC50 (displacement of 50% of the specific radioactivity fixed on the receptor). Here is the method:
1) Test on the angiotensin II receptor
A fresh membrane preparation obtained from the liver of a rat was used. The tissue was ground up in a polytron in a Tris 50 mM pH 7.4 buffer and after being ground up, the tissue was centrifuged 3 times at 30,000 g for 15 mintues with intermediate taking up of the deposits in the Tris pH 7.4 buffer. The last deposits were suspended in a pH 7.4 incubation buffer (Tris 20 mM, NaCl 135 mM, KCl 10 mM, glucose 5 mM, MgCl2 10 mM, benzyl sulfonyl fluoride 0.3 mM, bacitracin 0.1 mM, (0.2% bovine albumin serum). 2 ml aliquoted fractions were divided into hemolysis tubes and 125I angiotensin II (25,000 DPM/tube) and the product to be studied were added. The product was first tested at 3×10^-5 M in triplicate. When the test product displaced more than 50% of the radioactivity linked specifically to the receptor, it was tested again in a range of 7 concentrations to determine the concentration that inhibited the radioactivity linked specifically to the receptor by 50%. In this way, the 50% inhibiting concentration was determined.
The non-specific bond was determined by the addition of the product of Example 94 of the European Patent No. 0,253,310 at 10^-5 M (in triplicate). […]

pIC50: −log10 of the molar value.

On to `CC(C)Cc1cc(OCc2ccc(-c3ccccc3C(=O)O)cc2)c2cccc(C(F)(F)F)c2n1` [Example 35, 4'-(((2-(2-methylproyl)-8-(trifluoromethyl)-4-quinolinyl)-oxy)-methyl)(1,1'-biphenyl)-2-carboxylic acid], for which the pIC50 on endotheline receptor is 4.85. Moreover, the “antagonistic effect: decrease in response to endotheline (average arterial pressure)” value in assay [1] is reported as “antagonistic effect”.

Take `CCCCc1cc(Cc2ccc(-c3ccccc3C(=O)O)cc2)c2ccccc2n1` [Example 4, 4'-[(2-butyl-4-quinolinyl)-methyl](1,1'-biphenyl)-2-carboxylic acid]: the pIC50 was 6.88 in assay [2] and 6.27 at angiotensin II receptor.

(Values after US5817674A, “Quinoline compounds” (Roussel Uclaf, priority 1991, dated 1998).)
